Values quoted from earlier work, collected in US8329227B2, “Compositions for improving mental performance” (Factor Nutrition Labs, LLC, priority 2001, dated 2012).

Legend:
[1] = PS supplementation
[2] = 200 micrograms in four divided doses, fifty patients; placebo thirty-six percent
[3] = healthy volunteers aged 25-40
[4] = high or low dose versus placebo, 203 patients

phosphatidyl serine [PS]
improvement in learning ability and memory tasks [1]: 15%

C/C=C1\[C@H]2C=C(C)C[C@]1(N)c1ccc(=O)[nH]c1C2 [huperzine A, Huperzine A]
people with improvements in memory, cognitive function and behavior [2]: Fifty-eight

CCOC(=O)C1=C[C@]2(CC)CCCN3CCc4c(n1c1ccccc41)[C@@H]32 [vinpocetine]
memory (Steinberg Memory Test) [3]: significant memory improvement
cognitive performance and overall quality of life [4]: Significantly greater improvements
patients with reduced frequency or complete elimination of epileptic seizures (epileptic patients): twenty of the thirty-one
tolerability in clinical studies (human, in vivo): well tolerated
